Source: the supplement of paper PMC10307832

Assays:
Test in all cases: relative viability (nuclei count vs DMSO), 5 days (fraction); higher = more cells survive
SW 1573 = system: SW 1573
Procedure, shortened: (§1)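 Nuclei were stained with Hoechst during a one-step fixation (final 0.05% Triton X-100, 1% formaldehyde, 1 ug/ml Hoechst) carried out 5 days after dosing, then counted on 4× images. The cells, lung cancer lines in 1536-well plates, had been dosed by pin tool the day after seeding with one drug alone or a fixed anchor-drug dose plus five library-drug doses (not always all listed) in √10 steps. Relative viability is the nuclei count in treated wells divided by that in vehicle wells, and each value is the median of duplicate plates.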

NCI-H727 = system: NCI-H727
Procedure, shortened: as §1

LC-2-ad = system: LC-2-ad
Procedure, shortened: as §1

HCC-15 = system: HCC-15
Procedure, shortened: as §1

LU99A = system: LU99A
Procedure, shortened: as §1

BEN = system: BEN
Procedure, shortened: as §1

NCI-H1563 = system: NCI-H1563
Procedure, shortened: as §1

NCI-H650 = system: NCI-H650
Procedure, shortened: as §1

NCI-H2023 = system: NCI-H2023
Procedure, shortened: as §1

NCI-H2126 = system: NCI-H2126
Procedure, shortened: as §1

NCI-H3122 = system: NCI-H3122
Procedure, shortened: as §1

EMC-BAC-2 = system: EMC-BAC-2
Procedure, shortened: as §1

NCI-H1915 = system: NCI-H1915
Procedure, shortened: as §1

NCI-H1755 = system: NCI-H1755
Procedure, shortened: as §1

NCI-H1437 = system: NCI-H1437
Procedure, shortened: as §1

HOP-62 = system: HOP-62
Procedure, shortened: as §1

NCI-H1734 = system: NCI-H1734
Procedure, shortened: as §1

HCC-44 = system: HCC-44
Procedure, shortened: as §1

Structure (SMILES): Cc1cn(-c2cc(NC(=O)c3ccc(C)c(Nc4nccc(-c5cccnc5)n4)c3)cc(C(F)(F)F)c2)cn1 [Nilotinib] + CC(C)C[C@H](NC(=O)[C@H](Cc1ccccc1)NC(=O)c1cnccn1)B(O)O [Bortezomib] (partner 0.002 µM)
- relative viability (SW 1573; first compound 0.001 µM): 1.02
- relative viability (SW 1573; first compound 0.003162 µM): 1.4
- relative viability (SW 1573; first compound 0.01 µM): 1.54
- relative viability (SW 1573; first compound 0.03162 µM): 0.796
- relative viability (SW 1573; first compound 0.1 µM): 1.09
- relative viability (NCI-H727; first compound 0.001 µM): 0.848
- relative viability (NCI-H727; first compound 0.01 µM): 0.976
- relative viability (NCI-H727; first compound 0.03162 µM): 0.678
- relative viability (NCI-H727; first compound 0.1 µM): 0.484
- relative viability (LC-2-ad; first compound 0.001 µM): 0.914
- relative viability (LC-2-ad; first compound 0.003162 µM): 1.17
- relative viability (LC-2-ad; first compound 0.01 µM): 0.983
- relative viability (LC-2-ad; first compound 0.03162 µM): 0.992
- relative viability (LC-2-ad; first compound 0.1 µM): 0.527
- relative viability (HCC-15; first compound 0.001 µM): 0.92
- relative viability (HCC-15; first compound 0.003162 µM): 1.41
- relative viability (HCC-15; first compound 0.01 µM): 1.33
- relative viability (HCC-15; first compound 0.03162 µM): 0.855
- relative viability (HCC-15; first compound 0.1 µM): 0.629
- relative viability (LU99A; first compound 0.001 µM): 0.891
- relative viability (LU99A; first compound 0.003162 µM): 1.1
- relative viability (LU99A; first compound 0.01 µM): 1.39
- relative viability (LU99A; first compound 0.03162 µM): 1.19
- relative viability (LU99A; first compound 0.1 µM): 0.371
- relative viability (BEN; first compound 0.001 µM): 0.782
- relative viability (BEN; first compound 0.003162 µM): 0.843
- relative viability (BEN; first compound 0.01 µM): 0.788
- relative viability (BEN; first compound 0.1 µM): 0.721
- relative viability (NCI-H1563; first compound 0.001 µM): 0.878
- relative viability (NCI-H1563; first compound 0.003162 µM): 0.84
- relative viability (NCI-H1563; first compound 0.01 µM): 0.79
- relative viability (NCI-H1563; first compound 0.03162 µM): 0.704
- relative viability (NCI-H1563; first compound 0.1 µM): 0.623
- relative viability (NCI-H650; first compound 0.001 µM): 0.754
- relative viability (NCI-H650; first compound 0.003162 µM): 0.76
- relative viability (NCI-H650; first compound 0.01 µM): 0.923
- relative viability (NCI-H650; first compound 0.03162 µM): 0.794
- relative viability (NCI-H650; first compound 0.1 µM): 0.714
- relative viability (NCI-H2023; first compound 0.001 µM): 1
- relative viability (NCI-H2023; first compound 0.003162 µM): 0.691
- relative viability (NCI-H2023; first compound 0.01 µM): 1.16
- relative viability (NCI-H2023; first compound 0.03162 µM): 0.925
- relative viability (NCI-H2023; first compound 0.1 µM): 0.206
- relative viability (NCI-H2126; first compound 0.001 µM): 1.12
- relative viability (NCI-H2126; first compound 0.003162 µM): 1.18
- relative viability (NCI-H2126; first compound 0.01 µM): 1.08
- relative viability (NCI-H2126; first compound 0.03162 µM): 1.08
- relative viability (NCI-H2126; first compound 0.1 µM): 0.624
- relative viability (NCI-H3122; first compound 0.003162 µM): 1.05
- relative viability (NCI-H3122; first compound 0.03162 µM): 1.03
- relative viability (NCI-H3122; first compound 0.1 µM): 0.962
- relative viability (EMC-BAC-2; first compound 0.001 µM): 1.03
- relative viability (EMC-BAC-2; first compound 0.003162 µM): 1.08
- relative viability (EMC-BAC-2; first compound 0.01 µM): 1.09
- relative viability (EMC-BAC-2; first compound 0.03162 µM): 0.922
- relative viability (EMC-BAC-2; first compound 0.1 µM): 1.05
- relative viability (NCI-H1915; first compound 0.001 µM): 0.932
- relative viability (NCI-H1915; first compound 0.003162 µM): 1.17
- relative viability (NCI-H1915; first compound 0.01 µM): 1.18
- relative viability (NCI-H1915; first compound 0.03162 µM): 0.823
- relative viability (NCI-H1915; first compound 0.1 µM): 0.85
- relative viability (NCI-H1755; first compound 0.001 µM): 1
- relative viability (NCI-H1755; first compound 0.003162 µM): 1.16
- relative viability (NCI-H1755; first compound 0.01 µM): 1.15
- relative viability (NCI-H1755; first compound 0.03162 µM): 0.81
- relative viability (NCI-H1755; first compound 0.1 µM): 0.929
- relative viability (NCI-H1437; first compound 0.001 µM): 0.485
- relative viability (NCI-H1437; first compound 0.003162 µM): 0.505
- relative viability (NCI-H1437; first compound 0.01 µM): 0.651
- relative viability (NCI-H1437; first compound 0.03162 µM): 0.367
- relative viability (NCI-H1437; first compound 0.1 µM): 0.161
- relative viability (HOP-62; first compound 0.001 µM): 0.706
- relative viability (HOP-62; first compound 0.003162 µM): 0.861
- relative viability (HOP-62; first compound 0.01 µM): 0.28
- relative viability (HOP-62; first compound 0.03162 µM): 0.576
- relative viability (NCI-H1734; first compound 0.001 µM): 0.877
- relative viability (NCI-H1734; first compound 0.003162 µM): 0.948
- relative viability (NCI-H1734; first compound 0.01 µM): 1.01
- relative viability (NCI-H1734; first compound 0.03162 µM): 0.558
- relative viability (NCI-H1734; first compound 0.1 µM): 0.6
- relative viability (HCC-44; first compound 0.001 µM): 0.885
- relative viability (HCC-44; first compound 0.003162 µM): 0.968
- relative viability (HCC-44; first compound 0.01 µM): 0.853
- relative viability (HCC-44; first compound 0.03162 µM): 0.871
- relative viability (HCC-44; first compound 0.1 µM): 0.873

Structure (SMILES): CN1CCN(CCOc2cc(OC3CCOCC3)c3c(Nc4c(Cl)ccc5c4OCO5)ncnc3c2)CC1 [Saracatinib] + CC(C)C[C@H](NC(=O)[C@H](Cc1ccccc1)NC(=O)c1cnccn1)B(O)O [Bortezomib] (partner 0.002 µM)
- relative viability (SW 1573; first compound 0.02 µM): 0.997
- relative viability (SW 1573; first compound 0.2 µM): 0.906
- relative viability (SW 1573; first compound 0.6325 µM): 0.955
- relative viability (SW 1573; first compound 2 µM): 0.933
- relative viability (NCI-H727; first compound 0.02 µM): 0.923
- relative viability (NCI-H727; first compound 0.2 µM): 0.535
- relative viability (NCI-H727; first compound 0.6325 µM): 1.09
- relative viability (NCI-H727; first compound 2 µM): 0.506
- relative viability (LC-2-ad; first compound 0.02 µM): 1.15
- relative viability (LC-2-ad; first compound 0.6325 µM): 1.12
- relative viability (LC-2-ad; first compound 2 µM): 0.843
- relative viability (HCC-15; first compound 0.02 µM): 0.969
- relative viability (HCC-15; first compound 0.2 µM): 0.986
- relative viability (HCC-15; first compound 0.6325 µM): 1.04
- relative viability (HCC-15; first compound 2 µM): 0.918
- relative viability (LU99A; first compound 0.02 µM): 1.1
- relative viability (LU99A; first compound 0.2 µM): 1
- relative viability (LU99A; first compound 0.6325 µM): 1.13
- relative viability (LU99A; first compound 2 µM): 0.942
- relative viability (BEN; first compound 0.02 µM): 0.928
- relative viability (BEN; first compound 0.2 µM): 0.695
- relative viability (BEN; first compound 0.6325 µM): 0.889
- relative viability (BEN; first compound 2 µM): 0.573
- relative viability (NCI-H1563; first compound 0.02 µM): 0.857
- relative viability (NCI-H1563; first compound 0.2 µM): 0.713
- relative viability (NCI-H1563; first compound 0.6325 µM): 0.707
- relative viability (NCI-H1563; first compound 2 µM): 0.712
- relative viability (NCI-H650; first compound 0.02 µM): 0.925
- relative viability (NCI-H650; first compound 0.2 µM): 0.751
- relative viability (NCI-H650; first compound 0.6325 µM): 0.947
- relative viability (NCI-H650; first compound 2 µM): 0.799
- relative viability (NCI-H2023; first compound 0.02 µM): 1.1
- relative viability (NCI-H2023; first compound 0.2 µM): 0.902
- relative viability (NCI-H2023; first compound 0.6325 µM): 1.05
- relative viability (NCI-H2023; first compound 2 µM): 0.906
- relative viability (NCI-H2126; first compound 0.02 µM): 1.09
- relative viability (NCI-H2126; first compound 0.2 µM): 1.02
- relative viability (NCI-H2126; first compound 0.6325 µM): 1.11
- relative viability (NCI-H2126; first compound 2 µM): 0.996
- relative viability (NCI-H3122; first compound 0.02 µM): 1.05
- relative viability (NCI-H3122; first compound 0.6325 µM): 0.964
- relative viability (NCI-H3122; first compound 2 µM): 0.815
- relative viability (EMC-BAC-2; first compound 0.02 µM): 1.02
- relative viability (EMC-BAC-2; first compound 0.2 µM): 1
- relative viability (EMC-BAC-2; first compound 0.6325 µM): 1.19
- relative viability (EMC-BAC-2; first compound 2 µM): 1.03
- relative viability (NCI-H1915; first compound 0.02 µM): 0.959
- relative viability (NCI-H1915; first compound 0.2 µM): 0.813
- relative viability (NCI-H1915; first compound 0.6325 µM): 0.978
- relative viability (NCI-H1915; first compound 2 µM): 0.886
- relative viability (NCI-H1755; first compound 0.02 µM): 1.02
- relative viability (NCI-H1755; first compound 0.2 µM): 0.792
- relative viability (NCI-H1755; first compound 0.6325 µM): 1.08
- relative viability (NCI-H1755; first compound 2 µM): 0.83
- relative viability (NCI-H1437; first compound 0.02 µM): 0.502
- relative viability (NCI-H1437; first compound 0.2 µM): 0.505
- relative viability (NCI-H1437; first compound 0.6325 µM): 0.437
- relative viability (NCI-H1437; first compound 2 µM): 0.453
- relative viability (HOP-62; first compound 0.02 µM): 0.715
- relative viability (HOP-62; first compound 0.2 µM): 0.718
- relative viability (HOP-62; first compound 0.6325 µM): 0.692
- relative viability (HOP-62; first compound 2 µM): 1.06
- relative viability (NCI-H1734; first compound 0.02 µM): 1.08
- relative viability (NCI-H1734; first compound 0.6325 µM): 0.891
- relative viability (NCI-H1734; first compound 2 µM): 0.842
- relative viability (HCC-44; first compound 0.02 µM): 0.917
- relative viability (HCC-44; first compound 0.2 µM): 0.78
- relative viability (HCC-44; first compound 0.6325 µM): 0.93
- relative viability (HCC-44; first compound 2 µM): 1.02
